Patent EP4477653A1 (Perha Pharmaceuticals, priority 2023, dated 2024)
Each block holds one compound with its values, some of them ahead of it.

Target: T1, human recombinant A3AR (expressed in HEK-293 cells) (Homo sapiens, UniProt P0DMS8)
T1 construct: host or cells: HEK-293 cells
T1 sequence (P0DMS8 1-318): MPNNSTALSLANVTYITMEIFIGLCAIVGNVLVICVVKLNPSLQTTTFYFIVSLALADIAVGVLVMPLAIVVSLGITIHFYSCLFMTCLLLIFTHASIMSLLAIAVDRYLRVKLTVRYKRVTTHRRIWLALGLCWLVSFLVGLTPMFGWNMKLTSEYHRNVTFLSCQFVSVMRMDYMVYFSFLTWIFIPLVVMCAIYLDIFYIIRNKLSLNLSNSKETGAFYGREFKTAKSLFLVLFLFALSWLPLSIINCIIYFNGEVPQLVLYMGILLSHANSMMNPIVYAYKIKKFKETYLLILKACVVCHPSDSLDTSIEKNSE
Assay: Adenosine receptors antagonism assay (Eurofins), [125I]-AB-MECA radioligand competition
Type: binding
Conditions: [125I]-AB-MECA 0.15 nM, r.t., 120 min; IC50 from dose-response curves; read-out: Potency Class A3AR
Description: Assays were carried out at r.t. for 120 min. Compounds were initially tested at three concentrations (0.01, 0.1, 1 µM). […] IC50 values, which is the concentration causing a half-maximal inhibition of control specific binding, and Hill coefficients (nH) were determined by non-linear regression analysis of the competition curves generated with mean replicate values using Hill equation curve fitting. The inhibition constants (Ki) were calculated using the Cheng Prusoff equation.

SMILES: CCC(CC)Nc1cc(NCc2ccc(O)cc2)c2nnc(C(C)C)n2n1 [compound 42, 4-[[[6-(1-ethylpropylamino)-3-isopropyl-[1,2,4]triazolo[4,3-b]pyridazin-8-yl]amino]methyl]phenol]
IC50: 1 to 10 nM

SMILES: CC(C)c1nnc2c(NCc3ccccc3O)cc(N[C@@H]3CCCOC3)nn12 [compound 43, 2-[[[3-isopropyl-6-[[(3R)-tetrahydropyran-3-yl]amino]-[1,2,4]triazolo[4,3-b]pyridazin-8-yl]amino]methyl]phenol]
IC50: 10 to 100 nM

SMILES: CC(C)c1nnc2c(NCc3ccccc3O)cc(NC3CCOCC3)nn12 [compound 44, 2-[[[3-isopropyl-6-(tetrahydropyran-4-ylamino)-[1,2,4]triazolo[4,3-b]pyridazin-8-yl]amino]methyl]phenol]
IC50: 10 to 100 nM

SMILES: CCC(CC)Nc1cc(Nc2ccccc2)c2nnc(C(C)C)n2n1 [compound 45, N6-(1-ethylpropyl)-3-isopropyl-N8-phenyl-[1,2,4]triazolo[4,3-b]pyridazine-6,8-diamine]
IC50: 1 to 10 nM

SMILES: CCC(CC)Nc1cc(Nc2ccccn2)c2nnc(C(C)C)n2n1 [compound 46, N6-(1-ethylpropyl)-3-isopropyl-N8-(2-pyridyl)-[1,2,4]triazolo[4,3-b]pyridazine-6,8-diamine]
IC50: < 1 nM

SMILES: CCC(CC)Nc1cc(Nc2cccnc2)c2nnc(C(C)C)n2n1 [compound 47, N6-(1-ethylpropyl)-3-isopropyl-N8-(3-pyridyl)-[1,2,4]triazolo[4,3-b]pyridazine-6,8-diamine]
IC50: < 1 nM

SMILES: CCC(CC)Nc1cc(Nc2ccncc2)c2nnc(C(C)C)n2n1 [compound 48, N6-(1-ethylpropyl)-3-isopropyl-N8-(4-pyridyl)-[1,2,4]triazolo[4,3-b]pyridazine-6,8-diamine]
IC50: 1 to 10 nM

SMILES: CCC(CC)Nc1cc(NCc2ccncc2)c2nnc(C(C)C)n2n1 [compound 49, N6-(1-ethylpropyl)-3-isopropyl-N8-(4-pyridylmethyl)-[1,2,4]triazolo[4,3-b]pyridazine-6,8-diamine]
IC50: 1 to 10 nM

SMILES: CCC(CC)Nc1cc(NCc2cccnc2)c2nnc(C(C)C)n2n1 [compound 50, N6-(1-ethylpropyl)-3-isopropyl-N8-(3-pyridylmethyl)-[1,2,4]triazolo[4,3-b]pyridazine-6,8-diamine]
IC50: 1 to 10 nM

SMILES: CCC(CC)Nc1cc(NCc2ccccn2)c2nnc(C(C)C)n2n1 [compound 51, N6-(1-ethylpropyl)-3-isopropyl-N8-(2-pyridylmethyl)-[1,2,4]triazolo[4,3-b]pyridazine-6,8-diamine]
IC50: 1 to 10 nM

SMILES: CC(C)c1nnc2c(NCc3ccccn3)cc(NC(C)(C)C)nn12 [compound 52, N6-tert-butyl-3-isopropyl-N8-(2-pyridylmethyl)-[1,2,4]triazolo[4,3-b]pyridazine-6,8-diamine]
IC50: 1 to 10 nM

SMILES: CC(C)c1nnc2c(NCc3ccccn3)cc(NC3CC4(CCC4)C3)nn12 [compound 53, 3-isopropyl-N8-(2-pyridylmethyl)-N6-spiro[3.3]heptan-2-yl-[1,2,4]triazolo[4,3-b]pyridazine-6,8-diamine]
IC50: 1 to 10 nM

SMILES: CC(C)c1nnc2c(NCc3ccccn3)cc(NC3CC(F)(F)C3)nn12 [compound 54, N6-(3,3-difluorocyclobutyl)-3-isopropyl-N8-(2-pyridylmethyl)-[1,2,4]triazolo[4,3-b]pyridazine-6,8-diamine]
IC50: 10 to 100 nM

SMILES: CC(C)c1nnc2c(NCc3ccccn3)cc(NC3CCC(F)(F)CC3)nn12 [compound 55, N6-(4,4-difluorocyclohexyl)-3-isopropyl-N8-(2-pyridylmethyl)-[1,2,4]triazolo[4,3-b]pyridazine-6,8-diamine]
IC50: 10 to 100 nM

SMILES: CC(C)c1nnc2c(NCc3ccccn3)cc(NCc3ccccc3)nn12 [compound 56, N6-benzyl-3-isopropyl-N8-(2-pyridylmethyl)-[1,2,4]triazolo[4,3-b]pyridazine-6,8-diamine]
IC50: 1 to 10 nM

SMILES: CCC(CC)Nc1cc(NCc2ccccn2)c2nncn2n1 [compound 57, N6-(1-ethylpropyl)-N8-(2-pyridylmethyl)-[1,2,4]triazolo[4,3-b]pyridazine-6,8-diamine]
IC50: 100 to 1000 nM

Further lines, results first:

IC50: 10 to 100 nM
SMILES: CCC(CC)Nc1cc(NCc2ccccn2)c2nnc(C)n2n1 [compound 58, N6-(1-ethylpropyl)-3-methyl-N8-(2-pyridylmethyl)-[1,2,4]triazolo[4,3-b]pyridazine-6,8-diamine]

IC50: 1 to 10 nM
SMILES: CCc1nnc2c(NCc3ccccn3)cc(NC(CC)CC)nn12 [compound 59, 3-ethyl-N6-(1-ethylpropyl)-N8-(2-pyridylmethyl)-[1,2,4]triazolo[4,3-b]pyridazine-6,8-diamine]

IC50: 10 to 100 nM
SMILES: CCCc1nnc2c(NCc3ccccn3)cc(NC(CC)CC)nn12 [compound 60, N6-(1-ethylpropyl)-3-propyl-N8-(2-pyridylmethyl)-[1,2,4]triazolo[4,3-b]pyridazine-6,8-diamine]

IC50: 10 to 100 nM
SMILES: CCC(CC)Nc1cc(NCc2ccccn2)c2nnc(C(C)(C)C)n2n1 [compound 61, 3-tert-butyl-N6-(1-ethylpropyl)-N8-(2-pyridylmethyl)-[1,2,4]triazolo[4,3-b]pyridazine-6,8-diamine]

IC50: 1 to 10 nM
SMILES: CCC(CC)Nc1cc(NCc2ccccn2)c2nnc(C3CC3)n2n1 [compound 62, 3-cyclopropyl-N6-(1-ethylpropyl)-N8-(2-pyridylmethyl)-[1,2,4]triazolo[4,3-b]pyridazine-6,8-diamine]

IC50: 1 to 10 nM
SMILES: CCC(CC)Nc1cc(NCc2ccccn2)c2nnc(C3CCC3)n2n1 [compound 63, 3-cyclobutyl-N6-(1-ethylpropyl)-N8-(2-pyridylmethyl)-[1,2,4]triazolo[4,3-b]pyridazine-6,8-diamine]

IC50: 10 to 100 nM
SMILES: CCC(CC)Nc1cc(NCc2ccccn2)c2nnc(C3CCCC3)n2n1 [compound 64, 3-cyclopentyl-N6-(1-ethylpropyl)-N8-(2-pyridylmethyl)-[1,2,4]triazolo[4,3-b]pyridazine-6,8-diamine]

IC50: 100 to 1000 nM
SMILES: CCC(CC)Nc1cc(NCc2ccccn2)c2nnc(C3CCCCC3)n2n1 [compound 65, 3-cyclohexyl-N6-(1-ethylpropyl)-N8-(2-pyridylmethyl)-[1,2,4]triazolo[4,3-b]pyridazine-6,8-diamine]

IC50: 10 to 100 nM
SMILES: CCC(CC)Nc1cc(NCc2ccccn2)c2nnc(-c3ccccc3)n2n1 [compound 66, N6-(1-ethylpropyl)-3-phenyl-N8-(2-pyridylmethyl)-[1,2,4]triazolo[4,3-b]pyridazine-6,8-diamine]

IC50: 1 to 10 nM
SMILES: CCC(CC)Nc1cc(NCc2ccccn2)c2nnc(C(C)CC)n2n1 (stereo not shown) [compound 67, N6-(1-ethylpropyl)-N8-(2-pyridylmethyl)-3-sec-butyl-[1,2,4]triazolo[4,3-b]pyridazine-6,8-diamine]

IC50: 1 to 10 nM
SMILES: CCC(CC)Nc1cc(NCc2ccccn2)c2nnc(C(CC)CC)n2n1 [compound 68, N6,3-bis(1-ethylpropyl)-N8-(2-pyridylmethyl)-[1,2,4]triazolo[4,3-b]pyridazine-6,8-diamine]

IC50: 10 to 100 nM
SMILES: CCC(CC)Nc1cc(NCc2ccccn2)c2nnc(CC(C)C)n2n1 [compound 69, N6-(1-ethylpropyl)-3-isobutyl-N8-(2-pyridylmethyl)-[1,2,4]triazolo[4,3-b]pyridazine-6,8-diamine]

IC50: 100 to 1000 nM
SMILES: CCC(CC)Nc1cc(NCc2ccccn2)c2nnc(-c3ccccn3)n2n1 [compound 70, N6-(1-ethylpropyl)-3-(2-pyridyl)-N8-(2-pyridylmethyl)-[1,2,4]triazolo[4,3-b]pyridazine-6,8-diamine]

IC50: 10 to 100 nM
SMILES: CCC(CC)Nc1cc(NCc2ccccn2)c2nnc(-c3cccnc3)n2n1 [compound 71, N6-(1-ethylpropyl)-3-(3-pyridyl)-N8-(2-pyridylmethyl)-[1,2,4]triazolo[4,3-b]pyridazine-6,8-diamine]

IC50: 10 to 100 nM
SMILES: CCC(CC)Nc1cc(NCc2ccccn2)c2nnc(-c3ccncc3)n2n1 [compound 72, N6-(1-ethylpropyl)-3-(4-pyridyl)-N8-(2-pyridylmethyl)-[1,2,4]triazolo[4,3-b]pyridazine-6,8-diamine]

IC50: 1 to 10 nM
SMILES: CCC(CC)Nc1cc(NCc2ccccc2OC)c2nnc(C(C)C)n2n1 [compound 73, N6-(1-ethylpropyl)-3-isopropyl-N8-[(2-methoxyphenyl)methyl]-[1,2,4]triazolo[4,3-b]pyridazine-6,8-diamine]

IC50: 10 to 100 nM
SMILES: CC[C@H](CO)Nc1cc(NCc2ccc(N)cc2)c2nnc(C(C)C)n2n1 [compound 74, (2R)-2-[[8-[(4-aminophenyl)methylamino]-3-isopropyl-[1,2,4]triazolo[4,3-b]pyridazin-6-yl]amino]butan-1-ol]

IC50: 1 to 10 nM
SMILES: CCC(CC)Nc1cc(NCc2ccc(N)cc2)c2nnc(C(C)C)n2n1 [compound 75, N8-[(4-aminophenyl)methyl]-N6-(1-ethylpropyl)-3-isopropyl-[1,2,4]triazolo[4,3-b]pyridazine-6,8-diamine]

IC50: 1 to 10 nM
SMILES: CCC(CC)Nc1cc(NCc2cccc(N)c2)c2nnc(C(C)C)n2n1 [compound 76, N8-[(3-aminophenyl)methyl]-N6-(1-ethylpropyl)-3-isopropyl-[1,2,4]triazolo[4,3-b]pyridazine-6,8-diamine]

IC50: 10 to 100 nM
SMILES: CCC(CC)Nc1cc(NCc2ccccc2N)c2nnc(C(C)C)n2n1 [compound 77, N8-[(2-aminophenyl)methyl]-N6-(1-ethylpropyl)-3-isopropyl-[1,2,4]triazolo[4,3-b]pyridazine-6,8-diamine]

IC50: 10 to 100 nM
SMILES: CCC(CC)Nc1cc(NCc2cc3ccccc3[nH]2)c2nnc(C(C)C)n2n1 [compound 78, N6-(1-ethylpropyl)-N8-(1H-indol-2-ylmethyl)-3-isopropyl-[1,2,4]triazolo[4,3-b]pyridazine-6,8-diamine]
